# Source: US20070243238A1, “Treating mouth sores with patches adhered to teeth” (priority 2006, published 2007)
# Test system: mouth sores
# Experiment: Experimentation with amoxicillin on conventional patches for mouth sores
# Type: in vivo, human
# Details: amoxicillin powder for oral suspension massaged into conventional patch and dried
# Source text: Because use of antibiotics, antibacterials, and other pharmaceutical antimicrobials causes adverse side effects, experimentation with these medications has been limited. […] Conventional amoxicillin powder for preparation of oral suspension was used, which includes sugars and other excipients. The sugars act as a binder to the oral patch. The oral suspension is massaged into the patch and dried. Preferably, the amoxicillin powder is mixed into a stronger than normal liquid before being added to the patch.
smiles,measurement,value
CC1(C)S[C@@H]2[C@H](NC(=O)[C@H](N)c3ccc(O)cc3)C(=O)N2[C@H]1C(=O)O [amoxicillin],effect of medication on patch in treating mouth sores,works quite well
